From patent publication US20260008784A1 (VASTHERA CO., LTD., priority 2022, published 2026)
Read-outs that look alike come from different tables or passages of the source.

How the values were obtained:
[1] = Measurement of redox potential (DTT redox buffers, HPLC); assay type: physicochemical; conditions: DTT(Red)/DTT(Ox) redox buffers, 3 h, 30° C., 50% reduction of test compound
Protocol: A test compound (10 mM) was diluted 20-fold with each redox buffer solution and incubated for 3 h in a 30° C. water bath. Then, compounds were analyzed by HPLC. The area of peaks corresponding to the oxidized and reduced forms of test compound based on specific retention time was calculated and plotted as percent of total peak area against the Nernst equation value (mV) at x-axis. The Nernst equation value corresponding to 50% reduction of test compound was set as the midpoint redox potential value for test compound.
The redox potential values of the test compounds were analyzed based on the potential values established in redox buffer solutions where reduced and oxidized DTT are mixed at various ratios.

[2] = tested on: yeast thioredoxin (Trx)/yeast Trx reductase (TR); test: Peroxidase activity assay (H2O2 reduction, NADPH oxidation); assay type: biochemical; conditions: 50 μM test compound, 3 μM yeast Trx, 1.5 μM yeast TR, 250 μM NADPH, 1.2 mM H2O2, 30° C.; NADPH oxidized per minute
Protocol: Hydrogen peroxide (H2O2)-reducing peroxidase activity of compounds in present invention was performed as follows. Peroxyredoxin activity was measured in reaction mixture (200 μL volume) containing 50 mM HEPES buffer (pH 7.0), 1 mM EDTA, 250 μM NADPH, 3 μM yeast thioredoxin (Trx), 1.5 μM yeast Trx reductase (TR), 50 μM test compound, and 1.2 mM H2O2.
Reaction was initiated by adding H2O2 and the decrease in absorbance at 340 nm was measured using Agilent UV8453 spectrophotometry (Hewlett Packard, USA) at 30° C. for 12 min. Initial reaction rate is the amount of NADPH oxidized per minute calculated from slope of the linear part of curve.
The H2O2-reducing peroxidase activity of the test compounds in present invention was measured in a reaction mixture containing thioredoxin (Trx)/thioredoxin reductase (TR), respectively.

NIH-3T3 cells = test: Intracellular H2O2-eliminating activity (CM-H2DCF-DA fluorescence); assay type: cell-based; conditions: Mus musculus, NIH3T3, glucose oxidase, concentration at 50% reduction of intracellular H2O2
Protocol: The activity of test compounds in present invention to eliminate intracellular H2O2 was measured as follows. NIH-3T3 cells (ATCC) were seeded in a 35-mm culture dish at 2×10^5 cells/well. After culture for 24 hours, cells were serum-starved with phenol red free-basal DMEM containing 0.5% FBS for 6 h. Starved NIH 3T3 cells were pretreated with compounds diluted with phenol red free-basal DMEM at concentrations ([…]) for 30 min, followed by treatment with 20 mU of glucose oxidase (Gox) for 30 min. A reactive oxygen species-sensitive fluorescence dye, carboxymethyl-dichlorofluorescein-diacetate (CM-H2DCF-DA), which was prepared in 1 mM DMSO stock and diluted 500 times in phenol red free-basal DMEM, was added to the cells and incubated for 5 min. Then, cells were quickly rinsed with basal medium. Images were taken at excitation 497 nm/emission 518 nm settings using a fluorescence microscope. Three images at 10× magnification per sample were obtained, and fluorescence intensities from 30 or more individual cells per image were averaged.
The intracellular H2O2-eliminating activity of test compounds in present invention was measured using a live-cell imaging fluorescence probe (CM-HaDCF-DA). H2O2-eliminating activity was measured depending on ascending concentrations of the test compound and expressed as the percent of activity compared to the untreated control group. EC50 represents the concentration of test compound at 50% reduction of intracellular H2O2.

[3] = tested on: Tyr 1175 phosphorylation of VEGF receptor-2 (VEGFR2) in HAEC; test: Immunoblot of VEGF-mediated signaling in PrxII knock-down HAEC; assay type: cell-based, human; conditions: HAECs depleted of PrxII expression, FIG. 5
Protocol: (§1) Cells were quickly washed in ice-cold phosphate-buffered saline (PBS) and lysed in extraction buffer containing 20 mM Hepes (pH 7.0), 1% Triton X-100, 150 mM NaCl, 10% glycerol, 1 mM EDTA, 2 mM EGTA, and 1 mM DTT, 5 mM Na3VO4, 5 mM NaF, 1 mM AEBSF, aprotinin (5 μg/mL), and leupeptin (5 μg/mL). After cen-trifugation at 12,000×g, the clarified cell extracts were used for immunoblotting. For re-blotting, the immunoblots were retrieved in a solution of 67 mM Tris (pH 6.7), 2% SDS, and 100 mM 2-mercaptoethanol at 60° C. for 30 min to remove antibodies and rinsed three times with a Tris-buffered saline (TBS) solution containing 1% Triton X-100. The retrieved membranes were subjected to new immunoblotting.
In human aortic endothelial cell (HAEC) and human pulmonary artery endothelial cell (PAEC) in which PrxII was knocked out by transfecting the PrxII siRNA, the ability of test compounds to replace the cellular function of PrxII was evaluated. That is, the efficacy of the new compounds was verified in terms of signaling pathways induced by VEGF that regulates the growth and migration of vascular endothelial cells in the aorta and pulmonary artery. Activation of VEGF-induced signaling pathway was analyzed by an immunoblot method using an antibody that specifically recognizes phosphorylation of Tyr 1175, which is a major phosphorylation site on VEGF receptor-2 (VEGFR2).

in vitro [4] = test: in vitro
Protocol: Cytotoxicity tests were performed against vascular endothelial cells, vascular smooth muscle cells and hepatocytes. After treatment with ascending concentrations of each compound, the concentration of test compound corresponding to 50% cell viability (CC50) was measured.

[5] = tested on: Tyr 857 phosphorylation of PDGF receptor-β (PDGFRβ) in HASMC; test: Immunoblot of PDGF-mediated signaling in PrxII knock-down HASMC; assay type: cell-based, human; conditions: HASMC depleted of PrxII expression, FIG. 2
Protocol: as §1
In human aortic smooth muscle cell (HASMC) and human pulmonary artery smooth muscle cell (PASMC) in which PrxII was knocked out by transfecting the PrxII siRNA, the ability of test compounds to replace the cellular function of PrxII was evaluated. That is, the efficacy of the new compounds was verified in terms of signaling pathways induced by PDGF that regulates the growth and migration of vascular smooth muscle cells in the aorta and pulmonary artery. Activation of PDGF-induced signaling pathway was analyzed by an immunoblot method using an antibody that specifically recognizes phosphorylation of Tyr 857, which is a major phosphorylation site on PDGF receptor (PDGFRβ).

in vitro [6] = conditions: human
Protocol: For cytotoxicity analysis, human aortic endothelial cells (HAEC) and smooth muscle cells (HASMC) were seeded in a 96-well culture plate at density of 4000 cells/well in a final volume of 100 μL. Cells were cultured for 24 h and serum-starved for an additional 18 h. Test compounds were serially diluted with EBM-2 culture medium, added to the plate at 100 μL/well, and further incubated for 24 h. The number of viable cells was measured using the WST-1 cell viability assay kit (Roche Diagnostics, USA). Cell number was expressed as absorbance values at 450 nm after subtracting the turbidity value at 600 nm. The absorbance values from three replicate wells were averaged.
After treatment with ascending concentrations of each compound, the concentration of test compound corresponding to 50% cell viability (CC50) was measured.

[7] = tested on: human aortic smooth muscle cell (HASMC); test: PDGF-induced proliferation assay, HASMC (PrxII siRNA); assay type: cell-based; conditions: for Degree of HASMC proliferation: PDGF-BB 25 ng/mL, percent of untreated control
Protocol: (§2) HASMCs and PASMCs were transfected with a PrxII-specific siRNA using RNAi MAX transfection reagent according to manufacturer's protocol. After 24 hours, transfected cells (3,000 cells/well) were seeded in a 96-well culture plate. At 12 h after seeding, cells were serum-starved for additional 18 h in SmBM basal medium containing 0.5% FBS. Test compounds were serially diluted with the same basal medium containing 0.5% FBS, added to the cells ([…]), and incubated for 2 h. After treatment, cells were placed in fresh SmBM medium containing 0.5% FBS and PDGF-BB (25 ng/mL) for growth factor stimulation and further cultured for 24 h.
(§3) The degree of cell proliferation was measured using the Cell Titer-GLO kit ([…]). Data are the percent of luminescence intensity averaged from three replicate wells versus that of untreated control group.
(§4) In human aortic smooth muscle cell (HASMC) and human pulmonary artery smooth muscle cell (PASMC) in which PrxII was knocked out by transfecting the PrxII siRNA, the ability of test compounds to inhibit the PDGF-induced proliferation of vascular smooth muscle cells was evaluated. In Table 6, the degree of proliferation in the compound-treated groups is expressed as percent of the degree of proliferation in untreated control group. The concentrations of test compounds corresponding to 50% growth inhibition (IC50) is also listed.

[8] = tested on: human pulmonary artery smooth muscle cell (PASMC); test: PDGF-induced proliferation assay, PASMC (PrxII siRNA); assay type: cell-based; conditions: for Degree of PASMC proliferation: PDGF-BB 25 ng/mL, percent of untreated control
Protocol: as §2, §3, §4

[9] = tested on: human aortic endothelial cell (HAEC); test: VEGF-induced proliferation assay, HAEC (PrxII siRNA); assay type: cell-based; conditions: for Degree of HAEC proliferation: VEGF-A 25 ng/mL, percent of untreated control
Protocol: as §2, with “HAECs” for “HASMCs”, “PAECs” for “PASMCs”, “EBM” for “SmBM”, “VEGF-A” for “PDGF-BB”
as §3
In human aortic endothelial cell (HAEC) and human pulmonary artery endothelial cell (PAEC) in which PrxII was knocked out by transfecting the PrxII siRNA, the ability of test compounds to augment the VEGF-induced proliferation of vascular endothelial cells was evaluated. In Table 7, the degree of proliferation in the compound-treated groups is expressed as percent of the degree of proliferation in untreated control group. The effective concentrations of test compounds increasing cell proliferation by 50% (EC50) is also listed.

Compound | Midpoint redox potential (E m) [1] [mV] | Peroxidase activity for H2O2 reduction [2] [nmol/min] | EC50 (NIH-3T3 cells) [µM] | Effect on phosphorylation of Tyr 1175 on VEGFR2 [3] | CC50 (in vitro [4]) [µM] | Effect on phosphorylation of Tyr 857 on PDGFR [5] | CC50 (in vitro [6]) [µM] | also measured
CN1C(=O)C2CSSC1(C)C(=O)N2Cc1ccccc1 (centres unmarked) [Compound 2, 6-benzyl-1,8-dimethyl-2,3-dithia-6,8-diazabicyclo[3.2.2]nonane-7,9-dione] | −293.19 | 5.05 | 0.00647 | strongly abolish the phosphorylation | > 500 | strongly abolish the phosphorylation |  | 
CN1C(=O)C2CSSC1(C)C(=O)N2Cc1ccccn1 (centres unmarked) [Compound 6, 1,8-dimethyl-6-(pyridin-2-ylmethyl)-2,3-dithia-6,8-diazabicyclo[3.2.2]nonan-7,9-dione] | −290.39 | 4.57 | 0.00599 | strongly abolish the phosphorylation | 341 | strongly abolish the phosphorylation |  | 
Cc1cccc(CN2C(=O)C3(C)SSCC2C(=O)N3C)n1 (centres unmarked) [Compound 12, 1,8-dimethyl-6-((6-methylpyridin-2-yl)methyl)-2,3-dithia-6,8-diazabicyclo[3.2.2]nonane-7,9-dione] |  | 4.94 |  |  | > 500 |  | > 500 | 
CN1C(=O)C2CSSC1(C)C(=O)N2Cc1cnn(C)c1 (centres unmarked) [Compound 13, 1,8-dimethyl-6-((1-methyl-1H-pyrazol-4-yl)methyl)-2,3-dithia-6,8-diazabicyclo[3.2.2]nonane-7,9-dione] |  | 4.78 |  |  | > 500 |  | > 500 | 
CN1CCN2C(=O)C3CSSC2(C1)C(=O)N3Cc1ccccc1 (centres unmarked) [Compound 21, 12-benzyl-9-methylhexahydro-5H-4,10a-(epiminomethano)pyrazino[2,1-c][1,2,4]dithi azepine-5,11-dione] | −272.86 | 8.38 |  | strongly abolish the phosphorylation |  | strongly abolish the phosphorylation |  | Degree of HASMC proliferation ([7]; 2.5 nM): 88.1%; Degree of HASMC proliferation ([7]; 5 nM): 63.9%; Degree of HASMC proliferation ([7]; 10 nM): 27.2%; Degree of HASMC proliferation ([7]; 25 nM): 4.0%; IC50 ([7]; Homo sapiens, HASMC, 50% growth inhibition, PDGF-stimulated): 0.00641 µM; Degree of PASMC proliferation ([8]; 2.5 nM): 69.9%; Degree of PASMC proliferation ([8]; 5 nM): 49.6%; Degree of PASMC proliferation ([8]; 10 nM): 18.7%; Degree of PASMC proliferation ([8]; 25 nM): 6.0%; Degree of PASMC proliferation ([8]; 50 nM): 7.1%; Degree of PASMC proliferation ([8]; 100 nM): 0.0%; IC50 ([8]; Homo sapiens, PASMC, 50% growth inhibition, PDGF-stimulated): 0.00451 µM; Degree of HAEC proliferation ([9]; 2.5 nM): 105.0%; Degree of HAEC proliferation ([9]; 5 nM): 122.7%; Degree of HAEC proliferation ([9]; 10 nM): 154.6%; Degree of HAEC proliferation ([9]; 25 nM): 190.1%; Degree of HAEC proliferation ([9]; 50 nM): 202.0%; Degree of HAEC proliferation ([9]; 100 nM): 141.2%; EC50 ([9]; Homo sapiens, Endothelial cell, effective concentration increasing cell proliferation by 50%, VEGF-stimulated): 0.00996 µM
C=CCN1C(=O)C2SSC1C(=O)N2CC=C [Control compound (A5), reference compound] |  | 4.25 | 0.0152 |  | 62.3 |  |  | 
